{"source": "patent US20070037739A1", "about": "“Compounds useful in coating stents to prevent and treat stenosis and restenosis” (Medlogics Device Corporation, priority 2003, published 2007)", "key": {"U937 cells": {"system": "U937 cells", "assay": "TNF-induced DNA fragmentation in U937 cells", "format": "cell-based", "text": "TNF-α-induced apoptosis in U937 monocytic leukemia cells can be used to evaluate the mechanism of apoptosis and its pharmacological manipulation in various diseases, including inflammation. This can be measured by internucleosomal DNA cleavage (Wright, S. C.; Kumar, P.; Tam, A. W.; Shen, N.; Varma, M.; Larrick, J. W. Apoptosis and DNA fragmentation precede TNF-induced cytolysis in U937 cells. J. Cell. Biochem., 1992, 48, 344-355). It has been shown that signal transduction pathways leading to apoptosis depend on the generation of free radicals (Buttke, T. M.; Sandstrom, P. A. Oxidative stress as a mediator of apoptosis. Immunol. Today, 1994, 15, 7-10) and alterations in the intracellular redox status through depletion of […] glutathione (GSH) (Ghibelli, L.; Coppola, S.; Rotilio, G.; Lafavia, E.; Maresca, V.; Ciriolo, M. R. Nonoxidative loss of gluthione in apoptosis via GSH extrusion. Biochem. Biophys. Res. Comm. 1995, 216, 313-320; van den Dobbelsteen, D. J.; Stefen, C.; Nobel, I.; Schlegel, J.; Cotgreave, I. A; Orrenius, S.; Slater, A. R. G. Rapid and specific efflux of reduced glutathione during apoptosis induced by anti-Fas/APO-1 antibody. J. Cell. Biochem., 1996, 271, 15420-15427)."}, "[1]": {"assay": "Balloon-induced intimal injury (restenosis)", "format": "in vivo", "conditions": "DAA-1 treated animals", "text": "Following balloon-induced […] intimal injury, rats were give daily intravenous saline or DAA-I at 15, 30 or 45 pmol/kg×14d."}, "[2]": {"conditions": "12 mg/d through inhalation for four days; cited from earlier work"}, "[3]": {"conditions": "cited from earlier work"}, "peritoneal macrophages": {"system": "peritoneal macrophages", "conditions": "cited from earlier work"}, "NADPH oxidase": {"molecular_target": "T1, NADPH oxidase (Homo sapiens, UniProt P04839)", "T1 sequence (P04839 2-570 limits assumed)": "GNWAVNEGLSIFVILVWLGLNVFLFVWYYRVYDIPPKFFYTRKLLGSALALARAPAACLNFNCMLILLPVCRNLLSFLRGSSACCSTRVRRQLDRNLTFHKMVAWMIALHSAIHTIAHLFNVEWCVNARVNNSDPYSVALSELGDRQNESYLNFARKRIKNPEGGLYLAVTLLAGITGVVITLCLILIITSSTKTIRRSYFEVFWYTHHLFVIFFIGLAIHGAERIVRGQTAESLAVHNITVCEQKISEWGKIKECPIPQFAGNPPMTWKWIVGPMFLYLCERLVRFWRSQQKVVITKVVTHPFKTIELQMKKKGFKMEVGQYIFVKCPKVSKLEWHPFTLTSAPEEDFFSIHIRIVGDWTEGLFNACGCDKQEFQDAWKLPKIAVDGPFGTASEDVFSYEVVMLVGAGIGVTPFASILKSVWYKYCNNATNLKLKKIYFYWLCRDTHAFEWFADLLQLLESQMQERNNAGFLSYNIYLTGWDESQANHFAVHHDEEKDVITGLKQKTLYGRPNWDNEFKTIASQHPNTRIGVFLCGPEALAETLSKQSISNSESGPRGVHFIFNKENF", "conditions": "read-out: IC50 to inhibit NADPH oxidase activity; cited from earlier work"}, "[4]": {"conditions": "injected, 400 mg/kg; cited from earlier work"}, "PBMNC": {"system": "PBMNC", "conditions": "LPS- and PG-stimulated PBMNC, healthy human donors; cited from earlier work"}, "J-774A.1 cells": {"system": "J-774A.1 cells", "conditions": "cited from earlier work"}, "neutrophils [5]": {"system": "neutrophils", "conditions": "PMA- and zymosan-stimulated neutrophils, healthy human volunteers; cited from earlier work"}, "human cartilage": {"system": "human cartilage", "conditions": "in vitro; cited from earlier work"}, "[6]": {"system": "peripheral blood mononuclear cells (PBMNC)", "conditions": "100 μg/ml; mycobacterial 60 kDa heat shock protein 5 μg/ml; six RA patients; cited from earlier work"}, "neutrophils [7]": {"system": "neutrophils", "conditions": "PMA-stimulated rat neutrophils; cited from earlier work"}, "pulmonary macrophages": {"system": "pulmonary macrophages", "conditions": "cited from earlier work"}, "[8]": {"conditions": "cited from earlier work", "remark": "listed apart in the source"}}, "note": "Peptide text beside a SMILES is read from it."}
{"smiles": "COc1cc(C(C)=O)ccc1OC(C)=O", "note": "[Compound 1, 4-Acetoxy-3-methoxyacetophenone]", "values": [{"measurement": "IC50 (μg/ml), protective effect against TNF-induced DNA fragmentation", "setting": "U937 cells", "value": 43, "unit": "µg/mL"}, {"measurement": "potency compared with apocynin (from IC50 values)", "setting": "U937 cells", "value": "more potent than apocynin"}]}
{"smiles": "COc1cc(C(C)=O)cc([N+](=O)[O-])c1O", "note": "[Compound 2, 4-Hydroxy-3-methoxy-5-nitroacetophenone]", "values": [{"measurement": "IC50 (μg/ml), protective effect against TNF-induced DNA fragmentation", "setting": "U937 cells", "value": 90, "unit": "µg/mL"}]}
{"smiles": "COc1cc(C(C)=O)cc(N)c1O.Cl", "note": "[Compound 3, 5-Amino-4-hydroxy-3-methoxyacetophenone hydrochloride]", "values": [{"measurement": "IC50 (μg/ml), protective effect against TNF-induced DNA fragmentation", "setting": "U937 cells", "value": 80, "unit": "µg/mL"}]}
{"smiles": "COc1cc(C(C)=O)cc(NC(C)=O)c1O", "note": "[Compound 4, 5-Acetoamido-4-hydroxy-3-methoxyacetophenone]", "values": [{"measurement": "IC50 (μg/ml), protective effect against TNF-induced DNA fragmentation", "setting": "U937 cells", "value": 37, "unit": "µg/mL"}, {"measurement": "potency compared with apocynin (from IC50 values)", "setting": "U937 cells", "value": "more potent than apocynin"}]}
{"smiles": "CC[C@H](C)[C@H](NC(=O)[C@H](Cc1ccc(O)cc1)NC(=O)[C@@H](NC(=O)[C@@H](N)CCCNC(=N)N)C(C)C)C(=O)N[C@@H](Cc1c[nH]cn1)C(=O)N1CCC[C@H]1C(=O)N[C@@H](Cc1ccccc1)C(=O)N[C@@H](Cc1c[nH]cn1)C(=O)N[C@@H](CC(C)C)C(=O)O", "note": "[DAA-I, Arg-Val-Tyr-IIe-His-pro-Phe-His-Leu] (H-RVYIHPFHL-OH)", "values": [{"measurement": "toxicity", "setting": "[1]", "value": "no appreciable toxicity was detected"}]}
{"smiles": "COc1cc(C(C)=O)ccc1O", "note": "[apocynin]", "values": [{"measurement": "side effects", "setting": "[2]", "value": "no side effects"}, {"measurement": "decrease of glutathione levels induced by ozone exposure", "setting": "[3]; 5 mg/kg orally, pretreatment", "value": "almost completed inhibited"}, {"measurement": "mean redox value (glutathione)", "setting": "[3]; apocynin pretreatment, air 15.4%, ozone 32.0%", "value": 18.3, "unit": "%"}, {"measurement": "IC50", "setting": "U937 cells; Homo sapiens, U-937, read-out: IC50 (μg/ml), protective effect against TNF-induced DNA fragmentation", "value": 64, "unit": "µg/mL"}, {"measurement": "oxidative burst", "setting": "peritoneal macrophages; apocynin 10 mM 25 min before myelin and zymosan, controls 75%", "value": "about 5%"}, {"measurement": "phagocytosis of myelin", "setting": "peritoneal macrophages; rat peritoneal macrophages", "value": "dose-dependently inhibited"}, {"measurement": "IC50", "setting": "NADPH oxidase", "value": 9.6, "unit": "µM"}, {"measurement": "obvious effects on the mice", "setting": "[4]", "value": "no obvious effects"}, {"measurement": "TNF-α release", "setting": "PBMNC", "value": "dose-dependently inhibited"}, {"measurement": "release of superoxide to the medium", "setting": "J-774A.1 cells; 100 μg/ml, cells+LDL+Cu2+ or cells+PMA", "value": "completely blocked"}, {"measurement": "macrophage-released superoxides, apocynin alone", "setting": "J-774A.1 cells; non-activated cells", "value": "0.2 nmol superoxide/10^6 cells"}, {"measurement": "concentration inhibiting ROS production by 50%", "setting": "neutrophils [5]", "value": 4, "unit": "µg/mL"}, {"measurement": "cartilage destruction and adverse effects on cartilage", "setting": "human cartilage", "value": "can counteract human RA-inflammation-mediated cartilage destruction without having adverse effects on human cartilage"}, {"measurement": "inhibition of production of IL-1", "setting": "[6]", "value": "greater than 50%"}, {"measurement": "inhibition of production of TNF-α", "setting": "[6]", "value": "greater than 50%"}, {"measurement": "production of ROS", "setting": "neutrophils [7]", "value": "competitively inhibited, in a dose-dependent manner"}, {"measurement": "production of prostaglandin E2", "setting": "pulmonary macrophages", "value": "increases the production of prostaglandin E2"}, {"measurement": "joint inflammation at lowest dose", "setting": "[8]; 24 μg/kg", "value": "protected the animals against joint inflammation"}, {"measurement": "joint swelling at highest dose", "setting": "[8]; 200 μg/ml", "value": "again inhibited joint swelling"}, {"measurement": "joint inflammation", "setting": "[8]; CIA rats, overall", "value": "significantly inhibited"}, {"measurement": "IL-6 production", "setting": "[8]; CIA rats", "value": "reduced IL-6 production"}, {"measurement": "swelling after termination of treatment", "setting": "[8]; CIA rats", "value": "did not result in a flare-up of the swelling"}]}
